# Experimental data published in PMC12095868, “The Fsr transporter of Sinorhizobium meliloti contributes to antimicrobial resistance and symbiosis with alfalfa” (Microbiology, 2025).
# Target: T1, Fsr (Sinorhizobium meliloti, UniProt Q92RK8)
# T1 construct: native full-length protein in S. meliloti 1021 cells, compared with fsr::loxSp null mutant; 398 residues; MFS membrane transporter
# Test: fluorometric accumulation and efflux assay, wild-type versus fsr null mutant cells
# Assay type: cell-based
# Details: whole cells, 10 ug/ml EtBr, 0.4% glucose as energy source; CCCP 25 ug/ml as decoupler in parallel; proton-dependent efflux
# T1 sequence (Q92RK8 entry or part of it): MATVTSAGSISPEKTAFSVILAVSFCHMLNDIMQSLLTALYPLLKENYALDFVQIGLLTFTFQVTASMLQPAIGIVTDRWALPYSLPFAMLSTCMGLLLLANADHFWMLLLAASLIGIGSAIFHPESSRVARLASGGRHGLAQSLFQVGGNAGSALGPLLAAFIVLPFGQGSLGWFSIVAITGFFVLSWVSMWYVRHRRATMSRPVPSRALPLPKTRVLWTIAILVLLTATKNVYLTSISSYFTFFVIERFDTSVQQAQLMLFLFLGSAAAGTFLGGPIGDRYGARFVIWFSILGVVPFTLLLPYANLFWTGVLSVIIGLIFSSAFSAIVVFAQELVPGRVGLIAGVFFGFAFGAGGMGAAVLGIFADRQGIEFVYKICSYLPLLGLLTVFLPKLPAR
compound,measurement,value
"CC[n+]1c(-c2ccccc2)c2cc(N)ccc2c2ccc(N)cc21 [EtBr, ethidium bromide]","fluorometric accumulation and efflux assay, wild-type versus fsr null mutant cel",The rate and extent of EtBr efflux were higher in the wild type
